The record followed here is US20160153997A1, “OLIGOPEPTIDE SPECIFIC TO COLORECTAL CANCER CELL AND APPLICATION THEREOF” (National Tsing Hua University, priority 2014, published 2016).

Assay in all cases: Capturing ability analysis, peptide-bonded magnetic beads mixed with cells
What all share (assay type): cell-based

Assay [1] concerns colorectal cancer cells (HCT-8). The note with it: colorectal cancer cell (HCT-8); 2×10^5 cells, room temperature, 25 rpm 30 minutes. An excerpt: (§1) In one embodiment, the peptide sequences of Seq ID: NO. 1 to Seq ID: NO. 3 are respectively bonded to the beads and mixed with different cell lines , respectively, including colorectal cancer cells (HCT-8), colorectal cancer stem cells (CR-CSC), human hepatoma cells (HepG2), human in situ pancreatic cancer cells (BxPC-3), human lung adenocarcinoma cells (A549) and human breast cancer cells (MCF7). Wherein, the beads having peptide sequences are mixed with each cell line at room temperature for 25 rpm 30 minutes, and the cell number of each cell line is 2×10^5. After washing for several times, the number of cells captured with magnetic beads having the above peptide sequences are calculated and the results are shown as Table 1 below.

Assay [2] deals with human breast cancer cells (MCF7). The note with it: human breast cancer cell (MCF7); 2×10^5 cells, room temperature, 25 rpm 30 minutes.
Text: as §1

The test system of assay [3] is human lung adenocarcinoma cells (A549). The settings on record: human lung adenocarcinoma cell (A549); 2×10^5 cells, room temperature, 25 rpm 30 minutes.
Text: as §1

Assay [4] deals with colorectal cancer stem cells (CR-CSC). The note with it: colorectal cancer stem cell (CR-CSC); 2×10^5 cells, room temperature, 25 rpm 30 minutes.
Text: as §1

In assay [5] the test system is human hepatoma cells (HepG2). The note with it: human hepatoma cell (HepG2); 2×10^5 cells, room temperature, 25 rpm 30 minutes.
Text: as §1

For assay [6], the system named is human in situ pancreatic cancer cells (BxPC-3). The note with it: human in situ pancreatic cancer cell (BxPC-3); 2×10^5 cells, room temperature, 25 rpm 30 minutes.
Text: as §1

“And” between values parts separate entries of the source, which are not always exact repeats. Equal entries are not always repeated.

In the case of “Seq ID: NO. 2: peptide sequence screened from M13 phage display peptide library, having binding specificity and affinity to HCT-8 or CR-CSC (GAISFDHVHP)”, the “Capturing ability (%)” value was 45.16% and 45.16 ± 7.12% in assay [1]; 20.45 ± 4.04% in assay [2]; 34.29 ± 5.22% in assay [3]; 20.85 ± 0.61% in assay [4]; 23.02 ± 2.77% in assay [5]; 3.13 ± 0.62% in assay [6].
For “Seq ID: NO. 3: peptide sequence screened from M13 phage display peptide library, having binding specificity and affinity to HCT-8 or CR-CSC (MNAKWPIENLMN)”, the “Capturing ability (%)” value in assay [1] was 9.42 ± 2.67%; in assay [2], 10.68 ± 5.08%; in assay [3], 16.77 ± 6.49%; in assay [4] it was 49.79% and 49.79 ± 5.34%; in assay [5], 17.87 ± 6.18%; in assay [6], 3.58 ± 1.18%.
With “Seq ID: NO. 1: peptide sequence screened from M13 phage display peptide library, having binding specificity and affinity to HCT-8 or CR-CSC (AELAKLPLF)”, the “Capturing ability (%)” value in assay [1] is 43.30% and 43.40 ± 7.23%; in assay [2], 12.84 ± 7.67%; in assay [3], 28.51 ± 7.09%; in assay [4], 22.97 ± 4.29%; in assay [5], 23.60 ± 3.50%; in assay [6], 3.41 ± 1.14%.
